Earlier results in patent US20240050950A1, “GRADIENT-BASED MICROFLUIDIC CIRCUIT, DEVICE, AND METHOD FOR PERFORMING AN ASSAY” (priority 2020, published 2024).
Structures can show the parent of a compound that is named as a salt. Where two headings read alike, the source gives them in different places.

Conditions: cited from earlier work
[1] = Table 1, antimicrobial agents/drugs
[2] = Table 3, antifungal drugs and other molecules

Structure (SMILES)	Molar volume [1]	Molar volume (Table 2, anticancer drugs)	other results
CN[C@H]1C[C@@H](N)[C@H](O)[C@@H](O[C@@H]2O[C@H](CO)[C@H](O)[C@@H]3OC4(O[C@H]23)O[C@H]([C@@H](N)CO)[C@H](O)[C@H](O)[C@H]4O)[C@@H]1O (some centres unmarked) [Hygromycin B (WK2130000), Hygromycin B]	315.1 ± 5.0 cm^3		
CC(=O)[C@]1(O)Cc2c(O)c3c(c(O)c2[C@@H](O[C@H]2C[C@H](N)[C@H](O)[C@H](C)O2)C1)C(=O)c1ccccc1C3=O [Idarubicin Hydrochloride]		317.8 ± 5.0 cm^3	
CC[C@H](Nc1ncnc2[nH]cnc12)c1nc2cccc(F)c2c(=O)n1-c1ccccc1 [Idelalisib (Zydelig), Idelalisib]		282.2 ± 7.0 cm^3	
O=P1(NCCCl)OCCCN1CCCl (centres unmarked) [Ifex (Ifosfamide), Ifosfamide]		195.6 ± 5.0 cm^3	
C[C@H](CCC(=O)O)C[C@H](C)C[C@H](C)C(=O)/C=C(\O)[C@H](C)C[C@H](C)C/C=C/[C@@H](C)[C@@H](O)[C@@H](C)[C@@H](O)C[C@@H]1CC[C@@](C)([C@H]2CC[C@@](C)([C@@H](C)O)O2)O1 [Ionomycin]	661.0 ± 3.0 cm^3		
Oc1cc(Cl)ccc1Oc1ccc(Cl)cc1Cl [Irgasan]	194.3 ± 3.0 cm^3		
N#Cc1ccnc(N2C(=O)CC[C@H]2C(=O)N(c2cncc(F)c2)[C@H](C(=O)NC2CC(F)(F)C2)c2ccccc2Cl)c1 [Ivosidenib (Tibsovo), Ivosidenib]		383.5 ± 5.0 cm^3	
C/C(=C\c1csc(C)n1)[C@@H]1C[C@@H]2O[C@]2(C)CCC[C@H](C)[C@H](O)[C@@H](C)C(=O)C(C)(C)[C@@H](O)CC(=O)N1 [Ixabepilone]		451.5 ± 3.0 cm^3	
CO[C@@H]1[C@@H](O[C@@H]2O[C@H](C)[C@@H](O[C@H]3C[C@@](C)(O)[C@@H](OC(=O)CC(C)C)[C@H](C)O3)[C@H](N(C)C)[C@H]2O)[C@@H](CC=O)C[C@@H](C)[C@@H](O)/C=C/C=C/C[C@@H](C)OC(=O)C[C@H]1OC(C)=O [Josamycin]	684.5 ± 5.0 cm^3		
COC(=O)[C@@]1(O)C[C@H]2O[C@]1(C)n1c3ccccc3c3c4c(c5c6ccccc6n2c5c31)C(=O)NC4 [K-252a]	278.7 ± 7.0 cm^3		
C[C@H]1O[C@H](O[C@H]2[C@H](O)[C@@H](O)[C@@H](O)[C@H](O)[C@@H]2O)[C@@H](N)C[C@@H]1NC(=N)C(=O)O [Kasugamycin]			Molar volume [2]: 192.2 ± 7.0 cm^3
CC(=O)N1CCN(c2ccc(OCC3COC(Cn4ccnc4)(c4ccc(Cl)cc4Cl)O3)cc2)CC1 (centres unmarked) [Ketoconazole]	384.9 ± 7.0 cm^3		Molar volume [2]: 389.4 cm^3
CN(C)C(=O)c1cc2cnc(Nc3ccc(N4CCNCC4)cn3)nc2n1C1CCCC1 [Kisqali (Ribociclib), Ribociclib]		635.1 ± 5.0 cm^3	Molar volume (Table 2, anticancer drugs, listed as Ribociclib): 311.4 ± 7.0 cm^3
C[C@H](N)C(=O)N[C@@H](C)P(=O)(O)O [L-Alanyl-L-1-aminoethylphosphonic acid]	140.5 ± 3.0 cm^3		
CC(C)[C@@H]1NC(=O)[C@H](CCCCN)NC(=O)[C@@H](Cc2c[nH]c3ccccc23)NC(=O)[C@H](Cc2ccc(O)cc2)NC(=O)[C@@H](NC(=O)[C@H](N)Cc2ccc3ccccc3c2)CSSC[C@@H](C(=O)N[C@H](C(N)=O)[C@@H](C)O)NC1=O [Lanreotide Acetate]		781.0 ± 5.0 cm^3	
O=C(Nc1cnn2ccc(N3CCC[C@@H]3c3cc(F)ccc3F)nc12)N1CC[C@H](O)C1 [Larotrectinib Sulfate (Vitrakvi), Larotrectinib Sulfate]		274.6 ± 7.0 cm^3	
Nc1cccc2c1CN(C1CCC(=O)NC1=O)C2=O (centres unmarked) [Lenalidomide]		177.4 ± 3.0 cm^3	
CC(/C=C/C[C@@H](C)/C=C(C)/C=C/[C@@H]1OC(=O)C=C[C@@H]1C)=C\[C@@H](C)C(=O)[C@@H](C)[C@H](O)[C@@H](C)C/C(C)=C/C(=O)O [Leptomycin A]	487.8 ± 3.0 cm^3		
CCC(=C/[C@H](C)C/C=C/C(C)=C/[C@@H](C)C(=O)[C@@H](C)[C@H](O)[C@@H](C)C/C(C)=C/C(=O)O)/C=C/[C@@H]1OC(=O)C=C[C@@H]1C [Leptomycin B]	504.3 ± 3.0 cm^3		
CCNC(=O)[C@@H]1CCCN1C(=O)[C@H](CCCNC(=N)N)NC(=O)[C@H](CC(C)C)NC(=O)[C@@H](CC(C)C)NC(=O)[C@H](Cc1ccc(O)cc1)NC(=O)[C@H](CO)NC(=O)[C@H](Cc1c[nH]c2ccccc12)NC(=O)[C@H](Cc1c[nH]cn1)NC(=O)[C@@H]1CCC(=O)N1 [Leuprolide Acetate), Leuprolide Acetate]		834.5 ± 7.0 cm^3	
c1ccc([C@H]2CN3CCSC3=N2)cc1 [Levamisol (Levamisole), Levamisole]	154.1 ± 7.0 cm^3		
O=NN(CCCl)C(=O)NC1CCCCC1 [Lomustine]		173.0 ± 7.0 cm^3	
O=C(c1cc(Cc2n[nH]c(=O)c3ccccc23)ccc1F)N1CCN(C(=O)C2CC2)CC1 [Lynparza (Olaparib), Olaparib]		301.7 ± 7.0 cm^3	
CNNCc1ccc(C(=O)NC(C)C)cc1 [Matulane (Procarbazine Hydrochloride), Procarbazine Hydrochloride]		213.6 ± 3.0 cm^3	
COC(=O)Nc1nc2ccc(C(=O)c3ccccc3)cc2[nH]1 [Mebendazole]	212.6 ± 3.0 cm^3		

Structure (SMILES)	Molar volume [1]	Molar volume (Table 2, anticancer drugs)	other results
CC(=O)O[C@]1(C(C)=O)CC[C@H]2[C@@H]3C=C(C)C4=CC(=O)CC[C@]4(C)[C@H]3CC[C@@]21C [Megestrol Acetate]		333.3 ± 5.0 cm^3	
N[C@@H](Cc1ccc(N(CCCl)CCCl)cc1)C(=O)O [Melphalan]		231.2 ± 3.0 cm^3	
S=c1nc[nH]c2nc[nH]c12 [Mercaptopurine]		94.1 ± 3.0 cm^3	
CN(Cc1cnc2nc(N)nc(N)c2n1)c1ccc(C(=O)N[C@@H](CCC(=O)O)C(=O)O)cc1 [Methotrexate]		295.6 ± 3.0 cm^3	
Cc1ncc([N+](=O)[O-])n1CCO [Metronidazole]	117.8 ± 7.0 cm^3		
CC[C@H](C)C(=O)O[C@H]1CCC=C2C=C[C@H](C)[C@H](CC[C@@H]3C[C@@H](O)CC(=O)O3)[C@H]21 [Mevastatin]	343.8 ± 5.0 cm^3		
CO[C@@]12[C@H](COC(N)=O)C3=C(C(=O)C(C)=C(N)C3=O)N1C[C@@H]1N[C@@H]12 [Mitomycin C (Mitomycin), Mitomycin C]	213.6 ± 5.0 cm^3	213.6 ± 5.0 cm^3	
CC[C@@]1([C@@H]2O[C@@H]([C@H]3O[C@@](O)(CO)[C@H](C)C[C@@H]3C)C[C@@H]2C)CC[C@H]([C@]2(C)CC[C@]3(C[C@H](O)[C@@H](C)[C@@H]([C@@H](C)[C@@H](OC)[C@H](C)C(=O)O)O3)O2)O1 [Monensin]	552.7 ± 5.0 cm^3		
CO[C@@]1(NC(=O)C(C(=O)O)c2ccc(O)cc2)C(=O)N2C(C(=O)O)=C(CSc3nnnn3C)CO[C@@H]21 (some centres unmarked) [Moxalactam (Latamoxef), Moxalactam]	292.5 ± 7.0 cm^3		
c1cc(CN2CCCNCCNCCCNCC2)ccc1CN1CCCNCCNCCCNCC1 [Mozobil (Plerixafor), Plerixafor]		522.2 ± 3.0 cm^3	
C/C(=C\C(=O)OCCCCCCCCC(=O)O)C[C@@H]1OC[C@H](C[C@@H]2O[C@H]2[C@@H](C)[C@H](C)O)[C@@H](O)[C@H]1O [Mupirocin]	423.0 ± 3.0 cm^3		
CO/C(=C/C(N)=O)[C@H](C)[C@H](/C=C/c1csc(-c2csc([C@@H](C)/C=C/C=C/C(C)C)n2)n1)OC [Myxothiazol]	421.0 ± 3.0 cm^3		
CN1C[C@H](O)[C@@H](O)[C@H](O)[C@H]1CO [N-Methyl-1-deoxynojirimycin (1524564), N-Methyl-1-deoxynojirimycin]	127.0 ± 3.0 cm^3		
CCOc1ccc2ccccc2c1C(=O)N[C@@H]1C(=O)N2[C@@H]1SC(C)(C)[C@@H]2C(=O)O [Nafcillin]	289.8 ± 5.0 cm^3		
CN(C/C=C/c1ccccc1)Cc1cccc2ccccc12 [Naftifine]	265.4 ± 3.0 cm^3		
CC[C@@H](C(=O)O)[C@@H]1O[C@@H]([C@@H](C)[C@H](O)[C@H](C)C(=O)[C@H](CC)[C@H]2O[C@]3(C=C[C@@H](O)[C@]4(CC[C@@](C)([C@H]5CC[C@](O)(CC)[C@H](C)O5)O4)O3)[C@H](C)C[C@@H]2C)[C@@H](C)C[C@@H]1C [Narasin]	650.1 ± 5.0 cm^3		
CCC1=C[C@@H]2CN(C1)Cc1c([nH]c3ccccc13)[C@@](C(=O)OC)(c1cc3c(cc1OC)N(C)[C@H]1[C@@](O)(C(=O)OC)[C@H](OC(C)=O)[C@]4(CC)C=CCN5CC[C@]31[C@@H]54)C2 [Navelbine (Vinorelbine Tartrate), Vinorelbine Tartrate]		569.7 ± 5.0 cm^3	
Cn1cc(NC(=O)c2cc(NC(=O)CN=C(N)N)cn2C)cc1C(=O)NCCC(=N)N [Netropsin (Congocidin, Sinanomycin), Netropsin]	282.7 ± 7.0 cm^3		
CNC(=O)c1cc(Oc2ccc(NC(=O)Nc3ccc(Cl)c(C(F)(F)F)c3)cc2)ccn1 [Nexavar (Sorafenib Tosylate), Sorafenib Tosylate]		319.4 ± 3.0 cm^3	
O=C(Nc1ccc([N+](=O)[O-])cc1Cl)c1cc(Cl)ccc1O [Niclosamide]	202.4 ± 3.0 cm^3		
CO[C@@H]1C[C@@H](C[C@H]2CC[C@H](C)[C@H]([C@@H](C)C(=O)O)O2)O[C@]2(O[C@](C)([C@H]3CC[C@@](C)([C@@H]4O[C@@H]([C@H]5O[C@@](O)(CO)[C@H](C)C[C@@H]5C)C[C@@H]4C)O3)C[C@H]2C)[C@@H]1C [Nigericin]	607.9 ± 5.0 cm^3		
C[C@@H]([C@H](N)C(=O)N[C@H](C(=O)O)[C@H]1O[C@@H](n2ccc(=O)[nH]c2=O)[C@H](O)[C@@H]1O)[C@H](O)c1ccc(O)cn1 [Nikkomycin]	300.9 ± 3.0 cm^3		
CC1(C)NC(=O)N(c2ccc([N+](=O)[O-])c(C(F)(F)F)c2)C1=O [Nilandron (Nilutamide), Nilutamide]		216.7 ± 3.0 cm^3	
Cc1cn(-c2cc(NC(=O)c3ccc(C)c(Nc4nccc(-c5cccnc5)n4)c3)cc(C(F)(F)F)c2)cn1 [Nilotinib (Tasigna), Nilotinib]		388.6 ± 7.0 cm^3	
C[C@@H]1C[C@H]2CC[C@H](O2)[C@H](C)C(=O)O[C@@H](C)C[C@@H]2CC[C@@H](O2)[C@@H](C)C(=O)O[C@H](C)C[C@H]2CC[C@H](O2)[C@H](C)C(=O)O[C@@H](C)C[C@@H]2CC[C@@H](O2)[C@@H](C)C(=O)O1 [Nonactin (Ammonium ionophore), Nonactin]	707.9 ± 3.0 cm^3		
